From US10730880B2, “4,6-substituted-pyrazolo[1,5-a]pyrazines as Janus kinase inhibitors” (Array BioPharma Inc., priority 2014, dated 2020)
Like-named read-outs stand apart in the source and are kept apart here.

Assays:
Format in all cases: biochemical
[1] = molecular target: JAK2 (Homo sapiens (Human), UniProt O60674); assay: JAK2 Inhibition Assay (Omnia kinase fluorescence peptide substrate assay)
Text: (§1) The assays described in Examples A, B, C and D for the determination of Tyk2, JAK1, JAK2 and JAK3 kinase activity, respectively, utilized the Omnia® Kinase fluorescence peptide substrate-based technology (Invitrogen). The specific components of the assay mixture are described in Examples A, B, C and D. In these assays, Mg^2+ is chelated upon phosphorylation of the Omnia peptide by the kinase to form a bridge between the chelation-enhanced fluorophore Sox and the phosphate, resulting in an increase in fluorescence emission at 485 nm when excited at […]. The reactions were therefore read at excitation 360 nm and emission was measured at 485 nm every 50 seconds for 45 minutes using a PerkinElmer EnVision Multilabel Plate Reader.
(§2) The final buffer conditions for Tyk2, JAK1, JAK2, and JAK3 assays were as follows: 25 mM HEPES, pH 7.4, 10 mM MgCl2, 0.01% Triton X-100 and 1 mM DTT.
(§3) Two-μL aliquots of these were transferred to a fresh plate for a ten-fold intermediate dilution with assay buffer. Five-μL aliquots of the diluted compounds were then transferred to 20-μL of assay mixtures described in Examples A, B, C and D for a final concentration of DMSO of 2%. […] For each plate, percent of control (POC) values were calculated for each well according to the following equation:
(§4) where Xmax=Average Uninhibited Controls • Xmin=Average Background IC50's were estimated from the POC's using a standard 4-parameter logistic model:
(§5) where A=Minimum Y (Bottom Asymptote) • B=Maximum Y (Top Asymptote) • C=EC50 • D=Slope Factor • X=Compound Concentration (nM) • Y=POC
(§6) The IC50 is defined as the concentration of inhibitor at which the POC equals 50 for the fitted curve.
(§7) Compounds of Formula I were screened for their ability to inhibit JAK2 using the general enzyme inhibition assay method, in which the assay mixture contained 1 mM ATP, 10 μM Omnia® Y7 peptide (Catalog # IVGN KNZ3071C, Invitrogen Corporation, Carlsbad, Calif.) and 4 nM JAK2 in a total volume of 25 μL. JAK2 was purchased from Invitrogen Corporation, Carlsbad, Calif. (catalog # IVGN PV4288).

[2] = molecular target: Human Tyk2 kinase domain (Homo sapiens (Human), UniProt P29597); assay: Tyk2 Inhibition Assay (Omnia kinase fluorescence peptide substrate assay)
Chain of Human Tyk2 kinase domain (P29597 886-1187): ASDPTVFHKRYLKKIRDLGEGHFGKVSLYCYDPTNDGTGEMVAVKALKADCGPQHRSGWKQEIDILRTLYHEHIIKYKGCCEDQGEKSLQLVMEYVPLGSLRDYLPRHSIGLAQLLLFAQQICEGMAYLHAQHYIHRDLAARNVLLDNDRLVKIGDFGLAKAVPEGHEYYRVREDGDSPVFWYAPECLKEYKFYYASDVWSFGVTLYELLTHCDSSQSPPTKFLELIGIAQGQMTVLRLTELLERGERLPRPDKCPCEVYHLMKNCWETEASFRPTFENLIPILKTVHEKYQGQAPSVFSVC
Text: as §1, §2, §3, §4, §5, §6
Compounds of Formula I were screened for their ability to inhibit Tyk2 using the general enzyme inhibition assay method, in which the assay mixture contained 1 mM ATP, 8 μM Omnia® Y12 peptide (Catalog # IVGN KPZ3121C; Invitrogen Corporation, Carlsbad, Calif.) and 1 nM Tyk2 in a total volume of 25 μL. Human Tyk2 kinase domain, comprising amino acids 886 to 1187 with 10 additional histidine residues (histidine tag) on the carboxy terminus, was expressed and purified from bacculovirus in-house at Array BioPharma Inc. (Boulder, Colo.). The histidine tag was cleaved after purification using standard conditions.

[3] = molecular target: JAK3 (Homo sapiens (Human), UniProt P52333); assay: JAK3 Inhibition Assay (Omnia kinase fluorescence peptide substrate assay); conditions: read-out: JAK3 Enzyme IC50 1 mM ATP, averaged IC50 ranges
Chain of JAK3 (P52333 whole entry): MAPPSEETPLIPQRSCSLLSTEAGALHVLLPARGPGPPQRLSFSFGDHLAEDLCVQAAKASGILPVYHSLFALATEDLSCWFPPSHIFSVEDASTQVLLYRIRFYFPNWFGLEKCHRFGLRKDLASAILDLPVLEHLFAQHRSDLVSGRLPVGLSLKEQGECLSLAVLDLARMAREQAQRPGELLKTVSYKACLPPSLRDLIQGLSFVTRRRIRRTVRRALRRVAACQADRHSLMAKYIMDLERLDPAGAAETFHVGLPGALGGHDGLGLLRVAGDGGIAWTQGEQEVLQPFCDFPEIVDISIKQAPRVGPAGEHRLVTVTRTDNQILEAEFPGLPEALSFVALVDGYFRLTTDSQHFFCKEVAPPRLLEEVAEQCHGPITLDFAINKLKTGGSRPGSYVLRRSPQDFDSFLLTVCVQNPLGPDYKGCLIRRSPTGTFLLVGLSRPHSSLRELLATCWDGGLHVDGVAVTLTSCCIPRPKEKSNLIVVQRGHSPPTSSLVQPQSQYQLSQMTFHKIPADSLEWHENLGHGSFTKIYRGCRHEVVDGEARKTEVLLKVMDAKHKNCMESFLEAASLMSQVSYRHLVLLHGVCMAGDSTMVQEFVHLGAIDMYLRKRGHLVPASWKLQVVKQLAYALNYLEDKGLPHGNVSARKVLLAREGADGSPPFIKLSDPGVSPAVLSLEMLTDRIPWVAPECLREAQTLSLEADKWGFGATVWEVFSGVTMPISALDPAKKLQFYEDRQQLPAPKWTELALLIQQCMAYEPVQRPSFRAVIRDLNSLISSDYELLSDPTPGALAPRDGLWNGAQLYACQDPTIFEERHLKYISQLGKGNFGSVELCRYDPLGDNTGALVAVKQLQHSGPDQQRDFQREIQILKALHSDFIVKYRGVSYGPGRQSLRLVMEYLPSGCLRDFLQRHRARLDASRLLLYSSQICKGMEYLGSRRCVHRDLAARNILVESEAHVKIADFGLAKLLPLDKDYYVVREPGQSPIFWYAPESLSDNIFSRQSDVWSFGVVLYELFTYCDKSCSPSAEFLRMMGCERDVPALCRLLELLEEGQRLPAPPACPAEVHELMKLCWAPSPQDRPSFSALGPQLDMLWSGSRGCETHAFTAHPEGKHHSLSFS
Text: as §1, §2
as §3, with “equation: […]” for “equation:”

[4] = molecular target: JAK1 (Homo sapiens (Human), UniProt P23458); assay: JAK1 Inhibition Assay (Omnia kinase fluorescence peptide substrate assay)
Chain of JAK1 (P23458 whole entry): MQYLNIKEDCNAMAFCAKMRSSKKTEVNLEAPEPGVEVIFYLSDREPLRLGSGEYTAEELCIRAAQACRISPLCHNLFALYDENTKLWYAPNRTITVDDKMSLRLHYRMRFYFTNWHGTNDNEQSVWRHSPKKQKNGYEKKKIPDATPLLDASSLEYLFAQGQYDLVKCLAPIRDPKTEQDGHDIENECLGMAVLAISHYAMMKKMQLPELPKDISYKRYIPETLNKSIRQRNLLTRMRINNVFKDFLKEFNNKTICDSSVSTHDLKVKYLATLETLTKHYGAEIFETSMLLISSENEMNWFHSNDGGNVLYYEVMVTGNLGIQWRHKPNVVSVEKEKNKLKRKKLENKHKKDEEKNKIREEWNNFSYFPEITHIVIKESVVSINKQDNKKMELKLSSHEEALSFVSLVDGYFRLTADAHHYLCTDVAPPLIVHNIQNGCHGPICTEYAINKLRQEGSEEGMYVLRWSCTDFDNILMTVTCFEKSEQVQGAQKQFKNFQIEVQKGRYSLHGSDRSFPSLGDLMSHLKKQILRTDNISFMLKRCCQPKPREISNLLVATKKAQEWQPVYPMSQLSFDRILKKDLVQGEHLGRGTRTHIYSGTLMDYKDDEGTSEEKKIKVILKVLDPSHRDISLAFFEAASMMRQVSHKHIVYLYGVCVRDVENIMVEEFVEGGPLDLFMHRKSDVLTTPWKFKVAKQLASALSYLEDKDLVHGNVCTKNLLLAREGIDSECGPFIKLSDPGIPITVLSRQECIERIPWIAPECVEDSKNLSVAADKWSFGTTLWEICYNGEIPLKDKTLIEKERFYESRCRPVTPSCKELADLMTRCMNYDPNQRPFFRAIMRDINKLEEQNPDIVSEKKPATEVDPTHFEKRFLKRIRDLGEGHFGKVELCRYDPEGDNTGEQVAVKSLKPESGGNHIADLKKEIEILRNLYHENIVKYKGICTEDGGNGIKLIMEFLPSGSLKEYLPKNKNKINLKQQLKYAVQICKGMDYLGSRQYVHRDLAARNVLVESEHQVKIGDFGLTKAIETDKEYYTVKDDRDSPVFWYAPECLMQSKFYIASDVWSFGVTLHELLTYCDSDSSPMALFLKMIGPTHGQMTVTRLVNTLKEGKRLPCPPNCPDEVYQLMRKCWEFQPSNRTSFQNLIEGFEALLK
Text: as §1, §2, §3, §4, §5, §6
as §7, with “JAK1” for “JAK2”, “8” for “10”, “Y12” for “Y7”, “KPZ3121C;” for “KNZ3071C,”, “12.5” for “4”, “PV4775).” for “PV4288).”

[5] = read-out: JAK2 Enzyme IC50 1 mM ATP, 1 mM ATP, averaged IC50 ranges
[6] = read-out: TYK2 Enzyme IC50 1 mM ATP, 1 mM ATP, averaged IC50 ranges
[7] = JAK1 Enzyme IC50 1 mM ATP, averaged IC50 ranges

Chain of JAK2 (O60674 whole entry): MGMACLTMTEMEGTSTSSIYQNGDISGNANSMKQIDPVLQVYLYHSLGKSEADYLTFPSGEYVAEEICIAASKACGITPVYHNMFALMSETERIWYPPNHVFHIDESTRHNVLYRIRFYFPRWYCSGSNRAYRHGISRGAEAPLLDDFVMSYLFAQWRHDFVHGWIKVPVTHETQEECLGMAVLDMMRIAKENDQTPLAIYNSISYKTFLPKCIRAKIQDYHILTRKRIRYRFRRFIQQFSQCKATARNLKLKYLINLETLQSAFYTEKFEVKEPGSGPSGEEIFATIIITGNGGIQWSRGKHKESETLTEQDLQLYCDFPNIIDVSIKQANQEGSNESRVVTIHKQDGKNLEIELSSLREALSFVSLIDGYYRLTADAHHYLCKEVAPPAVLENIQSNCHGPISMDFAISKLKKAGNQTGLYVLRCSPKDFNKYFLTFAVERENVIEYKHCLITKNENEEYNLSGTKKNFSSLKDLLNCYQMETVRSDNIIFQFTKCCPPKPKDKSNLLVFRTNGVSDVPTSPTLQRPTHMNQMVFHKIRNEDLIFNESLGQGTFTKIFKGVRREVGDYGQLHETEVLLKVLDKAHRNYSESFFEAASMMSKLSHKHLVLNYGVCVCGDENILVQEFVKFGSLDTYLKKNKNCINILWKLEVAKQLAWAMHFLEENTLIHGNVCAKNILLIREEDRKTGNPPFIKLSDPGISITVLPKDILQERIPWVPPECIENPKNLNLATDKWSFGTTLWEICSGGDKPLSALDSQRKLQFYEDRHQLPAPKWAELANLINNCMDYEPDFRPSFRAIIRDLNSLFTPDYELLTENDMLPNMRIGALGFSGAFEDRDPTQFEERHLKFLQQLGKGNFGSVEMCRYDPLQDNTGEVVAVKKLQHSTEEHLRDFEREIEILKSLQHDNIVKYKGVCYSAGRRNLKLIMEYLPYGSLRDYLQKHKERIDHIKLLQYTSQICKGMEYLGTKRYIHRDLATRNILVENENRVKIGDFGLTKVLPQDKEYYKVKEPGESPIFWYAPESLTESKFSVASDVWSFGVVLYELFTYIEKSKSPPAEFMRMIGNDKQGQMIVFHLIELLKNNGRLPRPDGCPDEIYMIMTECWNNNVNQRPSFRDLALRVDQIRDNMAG

| Structure (SMILES) | IC50 [1, 5] | IC50 [2, 6] | other results |
| --- | --- | --- | --- |
| CCC(CC)n1cc(-c2nc(-c3cnn(C4CS(=O)(=O)C4)c3)cn3nccc23)cn1 [Example 13, 3-(4-(4-(1-(pentan-3-yl)-1H-pyrazol-4-yl)pyrazolo[1,5-a]pyrazin-6-yl)-1H-pyrazol-1-yl)thietane 1,1-dioxide] | < 10 nM | – | – |
| CCC(CC)n1cc(-c2nc(-c3cnn(C4CCN(S(C)(=O)=O)CC4)c3)cn3nccc23)cn1 [Example 32, 6-(1-(1-(methylsulfonyl)piperidin-4-yl)-1H-pyrazol-4-yl)-4-(1-(pentan-3-yL)-1H-pyrazol-4-yl)pyrazolo[1,5-a]pyrazine] | < 10 nM | < 10 nM | – |
| CCC(CC)n1cc(-c2nc(-c3cnn(C4CCN(C(=O)COC)CC4)c3)cn3nccc23)cn1 [Example 33, 2-methoxy-1-(4-(4-(4-(1-(pentan-3-yl)-1H-pyrazol-4-yl)pyrazolo[1,5-a]pyrazin-6-yl)-1H-pyrazol-1-yl)piperidin-1-yl)ethanone] | < 10 nM | < 10 nM | – |
| CCC(CC)n1cc(-c2nc(-c3cnn(C4CCN(C(=O)NC)CC4)c3)cn3nccc23)cn1 [Example 34, N-methyl-4-(4-(4-(1-(pentan-3-yl)-1H-pyrazol-4-yl)pyrazolo[1,5-a]pyrazin-6-yl)-1H-pyrazol-1-yl)piperidine-1-carboxamide] | < 10 nM | – | – |
| CCC(CC)n1cc(-c2nc(-c3cnn([C@H]4CC[C@H](O)CC4)c3)cn3nccc23)cn1 [Example 118, trans-4-(4-(4-(1-(pentan-3-yl)-1H-pyrazol-4-yl)pyrazolo[1,5-a]pyrazin-6-yl)-1H-pyrazol-1-yl)cyclohexanol] | – | – | IC50 [3]: 1000 to 10000 nM |
| CCC(CC)n1cc(-c2nc(-c3cnn([C@H]4CC[C@@H](O)CC4)c3)cn3nccc23)cn1 [Example 121, cis-4-(4-(4-(1-(pentan-3-yl)-1H-pyrazol-4-yl)pyrazolo[1,5-a]pyrazin-6-yl)-1H-pyrazol-1-yl)cyclohexanol] | – | – | IC50 [3]: 1000 to 10000 nM |
| CCC(CC)n1cc(-c2nc(-c3cnn([C@@H]4C[C@@H](O)[C@@H](O)C4)c3)cn3nccc23)cn1 [Example 132, (1R,2S,4s)-4-(4-(4-(1-(pentan-3-yl)-1H-pyrazol-4-yl)pyrazolo[1,5-a]pyrazin-6-yl)-1H-pyrazol-1-yl)cyclopentane-1,2-diol] | 10 to 100 nM | – | IC50 ([4]; read-out: JAK1 Enzyme IC50 1 mM ATP, averaged IC50 ranges): 100 to 1000 nM |
| CCC(CC)n1cc(-c2nc(-c3cnn(C4CC(C(N)=O)C4)c3)cn3nccc23)cn1 (centres unmarked) [Example 168, (1s,3s)-3-(4-(4-(1-(pentan-3-yl)-1H-pyrazol-4-yl)pyrazolo[1,5-a]pyrazin-6-yl)-1H-pyrazol-1-yl)cyclobutanecarboxamide] | – | – | IC50 [4, 7]: 1000 to 10000 nM |
| CCC(CC)n1cc(-c2nc(-c3cnn(C4CN(C(=O)C(C)(C)O)C4)c3)cn3nccc23)cn1 [Example 176, 2-hydroxy-2-methyl-1-(3-(4-(4-(1-(pentan-3-yl)-1H-pyrazol-4-yl)pyrazolo[1,5-a]pyrazin-6-yl)-1H-pyrazol-1-yl)azetidin-1-yl)propan-1-one] | – | < 10 nM | – |
| CCC(CC)n1cc(-c2nc(-c3cnn([C@@H]4CCC[C@@H]4O)c3)cn3nccc23)cn1 [Example 189, (1S,2R)-2-(4-(4-(1-(pentan-3-yl)-1H-pyrazol-4-yl)pyrazolo[1,5-a]pyrazin-6-yl)-1H-pyrazol-1-yl)cyclopentanol] | – | – | IC50 [4, 7]: 1000 to 10000 nM; IC50 [2]: 10 to 100 nM; IC50 [1]: 10 to 100 nM |

The next lines start with results.

| IC50 [1, 5] | IC50 [2, 6] | Structure (SMILES) | other results |
| --- | --- | --- | --- |
| 10 to 100 nM | – | CC[C@H](C1CC1)n1cc(-c2nc(-c3cnn(C[C@@H](O)CO)c3)cn3nccc23)cn1 (single isomer, unassigned) [Example 213] | – |
| < 10 nM | – | CCC(CC)n1cc(-c2nc(-c3cnn(C4CCN(C(C)=O)CC4)c3)cn3nccc23)cn1 [Example 31, 1-(4-(4-(4-(1-(pentan-3-yl)-1H-pyrazol-4-yl)pyrazolo[1,5-a]pyrazin-6-yl)-1H-pyrazol-1-yl)piperidin-1-yl)ethanone] | – |
| < 10 nM | < 10 nM | CCC(CC)n1cc(-c2nc(-c3cnn(C4CCN(C(=O)CN)CC4)c3)cn3nccc23)cn1 [Example 36, 2-amino-1-(4-(4-(4-(1-(pentan-3-yl)-1H-pyrazol-4-yl)pyrazolo[1,5-a]pyrazin-6-yl)-1H-pyrazol-1-yl)piperidin-1-yl)ethanone] | – |
| < 10 nM | – | CC[C@@H](C)n1cc(-c2nc(-c3cnn(C(CO)CO)c3)cn3nccc23)cn1 [Example 85, (R)-2-(4-(4-(1-(sec-butyl)-1H-pyrazol-4-yl)pyrazolo[1,5-a]pyrazin-6-yl)-1H-pyrazol-1-yl)propane-1,3-diol] | – |
| – | < 10 nM | CCC[C@H](C)n1cc(-c2nc(-c3cnn(C[C@H](O)CO)c3)cn3nccc23)cn1 [Example 86, (S)-3-(4-(4-(1-((S)-pentan-2-yl)-1H-pyrazol-4-yl)pyrazolo[1,5-a]pyrazin-6-yl)-1H-pyrazol-1-yl)propane-1,2-diol] | – |
| 1000 to 10000 nM | – | CC1(C)CCC[C@@H]1n1cc(-c2nc(-c3cnn(C[C@@H](O)CO)c3)cn3nccc23)cn1 [Example 95, (R)-3-(4-(4-(1-((S)-2,2-dimethylcyclopentyl)-1H-pyrazol-4-yl)pyrazolo[1,5-a]pyrazin-6-yl)-1H-pyrazol-1-yl)propane-1,2-diol] | – |
| – | < 10 nM | CCC(CC)n1cc(-c2nc(-c3cnn(C4CN(C(=O)C5(O)CC5)C4)c3)cn3nccc23)cn1 [Example 177, (1-hydroxycyclopropyl)(3-(4-(4-(1-(pentan-3-yl)-1H-pyrazol-4-yl)pyrazolo[1,5-a]pyrazin-6-yl)-1H-pyrazol-1-yl)azetidin-1-yl)methanone] | – |
